In patent US8354403B2, “Pyrrolidine derived beta 3 adrenergic receptor agonists” (Merck Sharp & Dohme Corp., priority 2009, dated 2013):
Where two headings read alike, the source gives them in different places. Blank lines part the entries; values can stand above or below the compound they belong to.

Target: T1, human β3 adrenergic receptor (Homo sapiens, UniProt P13945)
T1 construct: expressed in transfected cells; host or cells: Chinese hamster ovary (CHO) cells, stably transfected
Assay: Beta-3 agonist in vitro functional assay: cAMP production (LANCE TR-FRET) in CHO cells stably transfected with the cloned β3 receptor
Format: cell-based
Procedure, shortened: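 CHO cells stably expressing the cloned receptor, in HEPES-buffered HBSS with BSA and 0.6 mM IBMX, 6,000 cells/well, exposed to compound for 30 min at RT. cAMP read by LANCE TR-FRET against a cAMP standard curve. Isoproterenol defines maximal stimulation.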

[1] = Table 8, Beta-3 agonist in vitro functional assay, read-out: Human β3 agonist functional activity
[2] = Table 11, cAMP, CHO cells, read-out: Human β3 agonist functional activity
[3] = Table 5, cAMP, CHO cells, read-out: Human β3 agonist functional activity
[4] = Table 4, cAMP, CHO cells, read-out: Human β3 agonist functional activity
[5] = Table 12, human β3 functional activity given as ranges, read-out: Human β3 agonist functional activity
[6] = Table 10, Beta-3 agonist in vitro functional assay, read-out: Human β3 agonist functional activity
[7] = Table 9, Beta-3 agonist in vitro functional assay, read-out: Human β3 agonist functional activity

T1 sequence (P13945 whole entry): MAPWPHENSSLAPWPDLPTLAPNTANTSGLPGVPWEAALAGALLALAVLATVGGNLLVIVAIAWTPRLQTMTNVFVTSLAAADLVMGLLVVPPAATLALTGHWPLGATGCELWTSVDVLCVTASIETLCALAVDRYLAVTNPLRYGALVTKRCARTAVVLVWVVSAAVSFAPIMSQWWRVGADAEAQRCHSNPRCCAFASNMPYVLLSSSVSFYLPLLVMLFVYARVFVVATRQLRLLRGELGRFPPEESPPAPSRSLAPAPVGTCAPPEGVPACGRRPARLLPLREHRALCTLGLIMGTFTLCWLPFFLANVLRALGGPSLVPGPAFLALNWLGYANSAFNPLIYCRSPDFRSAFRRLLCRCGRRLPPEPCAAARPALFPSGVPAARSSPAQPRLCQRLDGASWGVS

Compound: O=C(c1ccc(C[C@@H]2CC[C@H]([C@H](O)c3ccccc3)N2)cc1)N1CCC2(CCCN2)CC1 [Example 305]
EC50 [1]: 100 to 999 nM

Compound: Cc1nccc(OC2CCN(C(=O)c3ccc(C[C@@H]4CC[C@H]([C@H](O)c5ccccc5)N4)cc3)CC2)n1 [Example 154]
EC50 [3]: 100 to 999 nM

Compound: O=C(OCc1ccccc1)C1CCCN(C(=O)c2ccc(C[C@@H]3CC[C@H]([C@H](O)c4ccccc4)N3)cc2)C1 (stereo partly drawn) [Example 32]
EC50 [4]: 10 to 99.9 nM

Compound: O=C(c1ccc(C[C@@H]2CC[C@H]([C@H](O)c3ccccc3)N2)cc1)N1Cc2c[nH]nc2C1 [Example 27]
EC50 [4]: 10 to 99.9 nM

Compound: O=C(c1ccc(CC2CCC(C(O)c3ccccc3)N2)cc1)N1CCC2(CCCC2=NO)CC1 (stereo not drawn) [Example 317]
EC50 [1]: 10 to 99.9 nM

Compound: O=C(c1ccc(C[C@@H]2CC[C@H]([C@H](O)c3ccccc3)N2)cc1)N1CCC(S(=O)(=O)c2ccccc2F)CC1 [Example 132]
EC50 [3]: 1 to 9.9 nM

Compound: O=C(c1ccc(C[C@@H]2CC[C@H]([C@H](O)c3ccccc3)N2)cc1)N1CCC(S(=O)(=O)C2CCCC2)CC1 [Example 126]
EC50 [3]: 10 to 99.9 nM

Compound: O=C(c1ccc(C[C@@H]2CC[C@H]([C@H](O)c3ccccc3)N2)cc1)N1CCC2(CC1)OC(C1CC1)c1ccccc12 (stereo partly drawn) [Example 308]
EC50 [1]: 10 to 99.9 nM

Compound: CC(C1CCN(C(=O)c2ccc(C[C@@H]3CC[C@H]([C@H](O)c4ccccc4)N3)cc2)CC1)n1cnccc1=O (stereo partly drawn) [Example 166]
EC50 [3]: 10 to 99.9 nM

Compound: O=C(c1ccc(C[C@@H]2CC[C@H]([C@H](O)c3ccccc3)N2)cc1)N1CCC(c2nn[nH]n2)CC1 [Example 105]
EC50 [3]: 10 to 99.9 nM

Compound: N#Cc1ccc(S(=O)(=O)C2CCN(C(=O)c3ccc(C[C@@H]4CC[C@H]([C@H](O)c5ccccc5)N4)cc3)CC2)cc1 [Example 137]
EC50 [3]: 10 to 99.9 nM

Compound: CN1CC(c2ccc(F)cc2)C2(CCN(C(=O)c3ccc(C[C@@H]4CC[C@H]([C@H](O)c5ccccc5)N4)cc3)CC2)C1=O (stereo partly drawn) [Example 262]
EC50 [1]: < 1 nM

Compound: O=C(c1ccc(C[C@@H]2CC[C@H]([C@H](O)c3ccccc3)N2)cc1)N1CC2CC(n3nccn3)CC2C1 (stereo partly drawn) [Example 20]
EC50 [4]: 10 to 99.9 nM

Compound: O=C(c1ccc(C[C@@H]2CC[C@H]([C@H](O)c3ccccc3)N2)cc1)N1CCC(c2ccccc2)(c2nnn[nH]2)CC1 [Example 242]
EC50 [1]: 10 to 99.9 nM

Compound: O=C(c1ccc(C[C@@H]2CC[C@H]([C@H](O)c3ccccc3)N2)cc1)N1CCC(n2ncnn2)CC1 [Example 102]
EC50 [3]: 1 to 9.9 nM

Compound: O=C(c1ccc(C[C@@H]2CC[C@H]([C@H](O)c3ccccc3)N2)cc1)N1CCC(Cn2cccn2)CC1 [Example 143]
EC50 [3]: 10 to 99.9 nM

Compound: O=C(c1ccc(C[C@@H]2CC[C@H]([C@H](O)c3ccccc3)N2)cc1)N1CCC2(CCNC2=O)CC1 [Example 250]
EC50 [1]: 10 to 99.9 nM

Compound: Cn1nnnc1C1(C)CCN(C(=O)c2ccc(C[C@@H]3CC[C@H]([C@H](O)c4ccccc4)N3)cc2)CC1 [Example 244]
EC50 [1]: 100 to 999 nM

Compound: CC1(C)CC2(CCN(C(=O)c3ccc(C[C@@H]4CC[C@H]([C@H](O)c5ccccc5)N4)cc3)CC2)C(=O)O1 [Example 293]
EC50 [1]: 1 to 9.9 nM

Compound: CO[C@H]1CCN(C(=O)c2ccc(C[C@@H]3CC[C@H]([C@H](O)c4ccccc4)N3)cc2)C1 [Example 8]
EC50 [4]: 100 to 999 nM

Compound: CC(c1ccccn1)N1C2CCC1CN(C(=O)c1ccc(CC3CCC(C(O)c4ccccc4)N3)cc1)C2 (stereo not drawn) [Example 539]
EC50 [2]: 10 to 99.9 nM

Compound: O=C(c1ccc(C[C@@H]2CC[C@H]([C@H](O)c3ccccc3)N2)cc1)N1CCC2(CCc3cn[nH]c32)CC1 [Example 321]
EC50 [1]: 100 to 999 nM

Compound: Nc1nnc(C2CCN(C(=O)c3ccc(C[C@@H]4CC[C@H]([C@H](O)c5ccccc5)N4)cc3)CC2)o1 [Example 99]
EC50 [3]: 10 to 99.9 nM

Compound: O=C(c1ccc(C[C@@H]2CC[C@H]([C@H](O)c3ccccc3)N2)cc1)N1CCC2(CC1)C(=O)NCN2c1ccccc1 [Example 260]
EC50 [1]: < 1 nM

Compound: O=C(c1ccc(C[C@@H]2CC[C@H]([C@H](O)c3ccccc3)N2)cc1)N1CCc2c(O)noc2C1 [Example 54]
EC50 (Human β3 agonist functional activity): 100 to 999 nM

Compound: O=C(c1ccc(C[C@@H]2CC[C@H]([C@H](O)c3ccccc3)N2)cc1)N1CCC2c3ccccc3OC2C1 (stereo partly drawn) [Example 56]
EC50 [4]: 1 to 9.9 nM

Compound: O=C(c1ccc(C[C@@H]2CC[C@H]([C@H](O)c3ccccc3)N2)cc1)N1CCC2(CC1)C(=O)NCC2c1ccccc1 (stereo partly drawn) [Example 261]
EC50 [1]: < 1 nM

Compound: O=C(c1ccc(C[C@@H]2CC[C@H]([C@H](O)c3ccccc3)N2)cc1)N1CC2CCC(C1)N2Cc1ccccn1 [Example 535]
EC50 [2]: 100 to 999 nM

Further lines, results first:

EC50 [2]: 10 to 99.9 nM
Compound: C[C@@H]1CN(C(=O)c2ccc(C[C@@H]3CC[C@H]([C@H](O)c4ccccc4)N3)cc2)CCN1Cc1ccccn1 [Example 527]

EC50 [5]: 1 to 9.9 nM
Compound: O=C(c1ccc(CC2CCC(C(O)c3ccccc3)N2)cc1)N1CCC2(CC1)C(=O)NCC2c1ccc(F)cc1 (single isomer, unassigned) [Example 557]

EC50 [6]: 10 to 99.9 nM
Compound: CCN(C(=O)C(C)N1CCN(C(=O)c2ccc(C[C@@H]3CC[C@H]([C@H](O)c4ccccc4)N3)cc2)CC1)C(C)C (stereo partly drawn) [Example 515]

EC50 [6]: 10 to 99.9 nM
Compound: CCN(CCO)C(=O)C(C)N1CCN(C(=O)c2ccc(C[C@@H]3CC[C@H]([C@H](O)c4ccccc4)N3)cc2)CC1 (stereo partly drawn) [Example 520]

EC50 [5]: 10 to 99.9 nM
Compound: CC(c1ncco1)N1CCN(C(=O)c2ccc(CC3CCC(C(O)c4ccccc4)N3)cc2)CC1 (single isomer, unassigned) [Example 583]

EC50 [5]: 1 to 9.9 nM
Compound: O=C(c1ccc(CC2CCC(C(O)c3ccccc3)N2)cc1)N1CCN(C2CCc3cccnc32)CC1 (single isomer, unassigned) [Example 597]

EC50 [6]: 10 to 99.9 nM
Compound: CC(C(=O)N1CCCCC12CC2)N1CCN(C(=O)c2ccc(C[C@@H]3CC[C@H]([C@H](O)c4ccccc4)N3)cc2)CC1 (stereo partly drawn) [Example 493]

EC50 [1]: 10 to 99.9 nM
Compound: O=C1CC2(CCN(C(=O)c3ccc(C[C@@H]4CC[C@H]([C@H](O)c5ccccc5)N4)cc3)CC2)Oc2ccc(-c3nnn[nH]3)cc21 [Example 325]

EC50 [6]: 10 to 99.9 nM
Compound: CC[C@@H](C)NC(=O)C(C)N1CCN(C(=O)c2ccc(C[C@@H]3CC[C@H]([C@H](O)c4ccccc4)N3)cc2)CC1 (stereo partly drawn) [Example 440]

EC50 [6]: < 1 nM
Compound: CC(C(=O)N1CCc2nc(C3CC3)sc2C1)N1CCN(C(=O)c2ccc(C[C@@H]3CC[C@H]([C@H](O)c4ccccc4)N3)cc2)CC1 (stereo partly drawn) [Example 505]

EC50 [7]: 10 to 99.9 nM
Compound: O=C(c1ccc(C[C@@H]2CC[C@H]([C@H](O)c3ccccc3)N2)cc1)N1CCN(Cc2ncccc2Br)CC1 [Example 416]

EC50 [7]: 10 to 99.9 nM
Compound: O=C(c1ccc(C[C@@H]2CC[C@H]([C@H](O)c3ccccc3)N2)cc1)N1CCN(c2ncccc2Cl)CC1 [Example 358]

EC50 [7]: 100 to 999 nM
Compound: Cn1ccnc1CN1CCN(C(=O)c2ccc(C[C@@H]3CC[C@H]([C@H](O)c4ccccc4)N3)cc2)CC1 [Example 396]

EC50 [7]: 10 to 99.9 nM
Compound: Cc1noc(C(C)N2CCN(C(=O)c3ccc(C[C@@H]4CC[C@H]([C@H](O)c5ccccc5)N4)cc3)CC2)n1 (stereo partly drawn) [Example 422]

EC50 [5]: 1 to 9.9 nM
Compound: O=C(c1ccc(CC2CCC(C(O)c3ccccc3)N2)cc1)N1CCC2(CC1)CC(C(F)(F)F)OC2=O (single isomer, unassigned) [Example 565]

EC50 [7]: 999 to 3000 nM
Compound: O=C(O)c1csc(N2CCN(C(=O)c3ccc(C[C@@H]4CC[C@H]([C@H](O)c5ccccc5)N4)cc3)CC2)n1 [Example 382]

EC50 [7]: 10 to 99.9 nM
Compound: O=C(c1ccc(C[C@@H]2CC[C@H]([C@H](O)c3ccccc3)N2)cc1)N1CCN(Cc2ccncn2)CC1 [Example 427]

EC50 [1]: 10 to 99.9 nM
Compound: COc1cccc2c1C1(CCN(C(=O)c3ccc(C[C@@H]4CC[C@H]([C@H](O)c5cccnc5)N4)cc3)CC1)OC(=O)N2 [Example 331]

EC50 [5]: 100 to 999 nM
Compound: O=C1CC(c2ccccc2)C2(CCN(C(=O)c3ccc(CC4CCC(C(O)c5cccnc5)N4)cc3)CC2)O1 (single isomer, unassigned) [Example 559]

EC50 [7]: 10 to 99.9 nM
Compound: CC(c1nn[nH]n1)N1CCN(C(=O)c2ccc(C[C@@H]3CC[C@H]([C@H](O)c4ccccc4)N3)cc2)CC1 (stereo partly drawn) [Example 423]

EC50 [7]: 10 to 99.9 nM
Compound: COc1ccccc1CN1CCN(C(=O)c2ccc(C[C@@H]3CC[C@H]([C@H](O)c4ccccc4)N3)cc2)CC1 [Example 409]

EC50 [6]: < 1 nM
Compound: CC(C(=O)NC1CCN(C)C1=O)N1CCN(C(=O)c2ccc(C[C@@H]3CC[C@H]([C@H](O)c4ccccc4)N3)cc2)CC1 (stereo partly drawn) [Example 459]

EC50 [6]: 10 to 99.9 nM
Compound: CNC(=O)C(C)N1CCN(C(=O)c2ccc(C[C@@H]3CC[C@H]([C@H](O)c4ccccc4)N3)cc2)CC1 (stereo partly drawn) [Example 435]

EC50 [5]: 10 to 99.9 nM
Compound: O=C(c1ccc(CC2CCC(C(O)c3ccccc3)N2)cc1)N1CCN(C(c2ccccn2)C2CC2)CC1 (single isomer, unassigned) [Example 589]

EC50 [5]: 10 to 99.9 nM
Compound: CC(c1cscn1)N1CCN(C(=O)c2ccc(C[C@@H]3CC[C@H]([C@H](O)c4ccccc4)N3)cc2)CC1 (single isomer, unassigned) [Example 580]

EC50 [6]: 10 to 99.9 nM
Compound: CC(C(=O)N1CCCCC1)N1CCN(C(=O)c2ccc(C[C@@H]3CC[C@H]([C@H](O)c4ccccc4)N3)cc2)CC1 (stereo partly drawn) [Example 484]

EC50 [7]: 100 to 999 nM
Compound: CCOC(=O)N1CCN(C(=O)c2ccc(C[C@@H]3CC[C@H]([C@H](O)c4ccccc4)N3)cc2)CC1 [Example 344]

EC50 [5]: 1 to 9.9 nM
Compound: CC1CC2(CCN(C(=O)c3ccc(CC4CCC(C(O)c5ccccc5)N4)cc3)CC2)C(=O)O1 (single isomer, unassigned) [Example 561]

EC50 [6]: 10 to 99.9 nM
Compound: CC(C(=O)N1CCC(CO)CC1)N1CCN(C(=O)c2ccc(C[C@@H]3CC[C@H]([C@H](O)c4ccccc4)N3)cc2)CC1 (stereo partly drawn) [Example 490]

EC50 [1]: 1 to 9.9 nM
Compound: O=C1CC2(CCN(C(=O)c3ccc(C[C@@H]4CC[C@H]([C@H](O)c5ccccc5)N4)cc3)CC2)Sc2ccccc21 [Example 326]

EC50 [6]: 10 to 99.9 nM
Compound: CC(C(=O)NCC(=O)N1CCCC1)N1CCN(C(=O)c2ccc(C[C@@H]3CC[C@H]([C@H](O)c4ccccc4)N3)cc2)CC1 (stereo partly drawn) [Example 460]

EC50 [7]: 10 to 99.9 nM
Compound: O=C(c1ccc(C[C@@H]2CC[C@H]([C@H](O)c3ccccc3)N2)cc1)N1CCN(c2nccs2)CC1 [Example 378]
